Measured values: ChEMBL document CHEMBL1157550, “Incorporation of fluorinated phenylalanine generates highly specific inhibitor of proteasome's chymotrypsin-like sites” (J Med Chem, 2010)

How the values were obtained:
[1] = target: T1, Proteasome Macropain subunit MB1 (Homo sapiens) (UniProt P28074); assay: Displacement of fluorescent labeled MV151 from 26S proteasome beta 5 in human HEK293 cell lysate assessed as residual activity at 100 uM after 1 hr by SDS-PAGE; format: cell-free
T1 sequence (whole entry): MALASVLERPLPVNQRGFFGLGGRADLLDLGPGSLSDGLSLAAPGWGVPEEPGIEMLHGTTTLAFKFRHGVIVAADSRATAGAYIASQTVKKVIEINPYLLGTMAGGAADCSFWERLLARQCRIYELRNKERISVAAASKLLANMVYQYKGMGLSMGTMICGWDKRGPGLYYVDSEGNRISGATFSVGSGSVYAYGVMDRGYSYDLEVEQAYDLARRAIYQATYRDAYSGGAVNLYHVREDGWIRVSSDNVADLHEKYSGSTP

[2] = target: T2, Proteasome component C5 (Homo sapiens) (UniProt P20618); assay: Inhibition of 26S proteasome beta 1 in human HEK293 cell lysate assessed as residual activity at 13.5 uM after 1 hr; format: cell-free
T2 sequence (whole entry): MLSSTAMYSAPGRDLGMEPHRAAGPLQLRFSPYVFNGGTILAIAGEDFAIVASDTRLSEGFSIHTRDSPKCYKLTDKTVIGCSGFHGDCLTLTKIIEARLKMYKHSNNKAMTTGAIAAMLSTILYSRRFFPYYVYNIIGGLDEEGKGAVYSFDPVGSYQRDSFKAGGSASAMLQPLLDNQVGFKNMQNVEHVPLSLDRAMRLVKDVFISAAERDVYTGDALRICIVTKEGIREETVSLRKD

[3] = target: T2, Proteasome component C5 (Homo sapiens); assay: (§1) Inhibition of 26S proteasome beta 1 in human HEK293 cell lysate assessed as residual activity at […] after 1 hr; format: cell-free
[4] = target: T2, Proteasome component C5 (Homo sapiens); assay: Inhibition of 26S proteasome beta 1 in human HEK293 cell lysate assessed as residual activity at 1.5 uM after 1 hr; format: cell-free
[5] = target: T2, Proteasome component C5 (Homo sapiens); assay: Inhibition of 26S proteasome beta 1 in human HEK293 cell lysate assessed as residual activity at 0.5 uM after 1 hr; format: cell-free
[6] = target: T2, Proteasome component C5 (Homo sapiens); assay: Inhibition of 26S proteasome beta 1 in human HEK293 cell lysate assessed as residual activity at 0.167 uM after 1 hr; format: cell-free
[7] = target: T2, Proteasome component C5 (Homo sapiens); assay: as §1; format: cell-free; remark: listed apart in the source
[8] = target: T2, Proteasome component C5 (Homo sapiens); assay: Inhibition of 26S proteasome beta 1 in human HEK293 cell lysate assessed as residual activity at 0.019 uM after 1 hr; format: cell-free
[9] = target: T2, Proteasome component C5 (Homo sapiens); assay: Inhibition of 26S proteasome beta 1 in human HEK293 cell lysate assessed as residual activity at 0.002 uM after 1 hr; format: cell-free
[10] = target: T2, Proteasome component C5 (Homo sapiens); assay: Inhibition of 26S proteasome beta 1 in human HEK293 cell lysate assessed as residual activity at 0.001 uM after 1 hr; format: cell-free
[11] = target: Proteasome Macropain subunit (Homo sapiens) (UniProt P49721); assay: (§2) Inhibition of 26S proteasome beta 2 in human HEK293 cell lysate assessed as residual activity at […] after 1 hr; format: cell-free
Sequence of Proteasome Macropain subunit (Homo sapiens) (P49721 whole entry): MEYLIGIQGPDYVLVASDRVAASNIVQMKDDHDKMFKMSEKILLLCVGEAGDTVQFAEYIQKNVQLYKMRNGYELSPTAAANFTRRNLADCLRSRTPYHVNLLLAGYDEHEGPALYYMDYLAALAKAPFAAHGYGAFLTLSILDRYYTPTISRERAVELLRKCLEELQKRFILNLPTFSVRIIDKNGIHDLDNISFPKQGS

[12] = target: Proteasome Macropain subunit (Homo sapiens) (UniProt P49721); assay: Inhibition of 26S proteasome beta 2 in human HEK293 cell lysate assessed as residual activity at 1.5 uM after 1 hr; format: cell-free
[13] = target: Proteasome Macropain subunit (Homo sapiens) (UniProt P49721); assay: Inhibition of 26S proteasome beta 2 in human HEK293 cell lysate assessed as residual activity at 0.5 uM after 1 hr; format: cell-free
[14] = target: Proteasome Macropain subunit (Homo sapiens) (UniProt P49721); assay: Inhibition of 26S proteasome beta 2 in human HEK293 cell lysate assessed as residual activity at 0.167 uM after 1 hr; format: cell-free
[15] = target: Proteasome Macropain subunit (Homo sapiens) (UniProt P49721); assay: as §2; format: cell-free; remark: listed apart in the source
[16] = target: Proteasome Macropain subunit (Homo sapiens) (UniProt P49721); assay: Inhibition of 26S proteasome beta 2 in human HEK293 cell lysate assessed as residual activity at 0.019 uM after 1 hr; format: cell-free
[17] = target: Proteasome Macropain subunit (Homo sapiens) (UniProt P49721); assay: Inhibition of 26S proteasome beta 2 in human HEK293 cell lysate assessed as residual activity at 0.006 uM after 1 hr; format: cell-free
[18] = target: Proteasome Macropain subunit (Homo sapiens) (UniProt P49721); assay: Inhibition of 26S proteasome beta 2 in human HEK293 cell lysate assessed as residual activity at 0.002 uM after 1 hr; format: cell-free
[19] = target: Proteasome Macropain subunit (Homo sapiens) (UniProt P49721); assay: Inhibition of 26S proteasome beta 2 in human HEK293 cell lysate assessed as residual activity at 0.001 uM after 1 hr; format: cell-free
[20] = target: T2, Proteasome component C5 (Homo sapiens); assay: Inhibition of 26S proteasome beta 1 in human HEK293 cell lysate assessed as residual activity at 0.006 uM after 1 hr; format: cell-free
[21] = target: Proteasome Macropain subunit (Homo sapiens) (UniProt P49721); assay: Inhibition of 26S proteasome beta 2 in human HEK293 cell lysate assessed as residual activity at 13.5 uM after 1 hr; format: cell-free
[22] = target: T2, Proteasome component C5 (Homo sapiens); assay: Displacement of fluorescent labeled MV151 from 26S proteasome beta 1 in human HEK293 cell lysate assessed as residual activity at 1 uM after 1 hr by SDS-PAGE; format: cell-free
[23] = target: T2, Proteasome component C5 (Homo sapiens); assay: Displacement of fluorescent labeled MV151 from 26S proteasome beta 1 in human HEK293 cell lysate assessed as residual activity at 100 uM after 1 hr by SDS-PAGE; format: cell-free
[24] = target: Proteasome Macropain subunit (Homo sapiens) (UniProt P49721); assay: Displacement of fluorescent labeled MV151 from 26S proteasome beta 2 in human HEK293 cell lysate assessed as residual activity at 1 uM after 1 hr by SDS-PAGE; format: cell-free
[25] = target: Proteasome Macropain subunit (Homo sapiens) (UniProt P49721); assay: Displacement of fluorescent labeled MV151 from 26S proteasome beta 2 in human HEK293 cell lysate assessed as residual activity at 100 uM after 1 hr by SDS-PAGE; format: cell-free
[26] = target: T1, Proteasome Macropain subunit MB1 (Homo sapiens); assay: Displacement of fluorescent labeled MV151 from 26S proteasome beta 5 in human HEK293 cell lysate assessed as residual activity at 1 uM after 1 hr by SDS-PAGE; format: cell-free
[27] = target: Proteasome subunit beta type-5 (Homo sapiens) (UniProt P28074); assay: Inhibition of 26S proteasome beta 5 in human HEK293 cell lysate assessed as residual activity at […] after 1 hr
[28] = target: Proteasome subunit beta type-5 (Homo sapiens) (UniProt P28074); assay: as above; remark: listed apart in the source
[29] = target: Proteasome subunit beta type-5 (Homo sapiens) (UniProt P28074); assay: Inhibition of 26S proteasome beta 5 in human HEK293 cell lysate assessed as residual activity at 1.5 uM after 1 hr
[30] = target: Proteasome subunit beta type-5 (Homo sapiens) (UniProt P28074); assay: Inhibition of 26S proteasome beta 5 in human HEK293 cell lysate assessed as residual activity at 0.5 uM after 1 hr
[31] = target: Proteasome subunit beta type-5 (Homo sapiens) (UniProt P28074); assay: Inhibition of 26S proteasome beta 5 in human HEK293 cell lysate assessed as residual activity at 13.5 uM after 1 hr
[32] = target: Proteasome subunit beta type-5 (Homo sapiens) (UniProt P28074); assay: Inhibition of 26S proteasome beta 5 in human HEK293 cell lysate assessed as residual activity at 0.167 uM after 1 hr
[33] = target: Proteasome subunit beta type-5 (Homo sapiens) (UniProt P28074); assay: Inhibition of 26S proteasome beta 5 in human HEK293 cell lysate assessed as residual activity at 0.019 uM after 1 hr
[34] = target: Proteasome subunit beta type-5 (Homo sapiens) (UniProt P28074); assay: Inhibition of 26S proteasome beta 5 in human HEK293 cell lysate assessed as residual activity at 0.006 uM after 1 hr
[35] = target: Proteasome subunit beta type-5 (Homo sapiens) (UniProt P28074); assay: Inhibition of 26S proteasome beta 5 in human HEK293 cell lysate assessed as residual activity at 0.002 uM after 1 hr
[36] = target: Proteasome subunit beta type-5 (Homo sapiens) (UniProt P28074); assay: Inhibition of 26S proteasome beta 5 in human HEK293 cell lysate assessed as residual activity at 0.001 uM after 1 hr
[37] = target: T2, Proteasome component C5 (Homo sapiens); assay: Inhibition of 26S proteasome beta 1 in human HEK293 cell lysate assessed as residual activity at 9 uM after 1 hr; format: cell-free
[38] = target: T2, Proteasome component C5 (Homo sapiens); assay: Inhibition of 26S proteasome beta 1 in human HEK293 cell lysate assessed as residual activity at 3 uM after 1 hr; format: cell-free
[39] = target: T2, Proteasome component C5 (Homo sapiens); assay: Inhibition of 26S proteasome beta 1 in human HEK293 cell lysate assessed as residual activity at 1 uM after 1 hr; format: cell-free
[40] = target: T2, Proteasome component C5 (Homo sapiens); assay: Inhibition of 26S proteasome beta 1 in human HEK293 cell lysate assessed as residual activity at 0.11 uM after 1 hr; format: cell-free
[41] = target: T2, Proteasome component C5 (Homo sapiens); assay: Inhibition of 26S proteasome beta 1 in human HEK293 cell lysate assessed as residual activity at 0.03 uM after 1 hr; format: cell-free
[42] = target: Proteasome Macropain subunit (Homo sapiens) (UniProt P49721); assay: Inhibition of 26S proteasome beta 2 in human HEK293 cell lysate assessed as residual activity at 9 uM after 1 hr; format: cell-free
[43] = target: Proteasome Macropain subunit (Homo sapiens) (UniProt P49721); assay: Inhibition of 26S proteasome beta 2 in human HEK293 cell lysate assessed as residual activity at 3 uM after 1 hr; format: cell-free
[44] = target: Proteasome Macropain subunit (Homo sapiens) (UniProt P49721); assay: Inhibition of 26S proteasome beta 2 in human HEK293 cell lysate assessed as residual activity at 1 uM after 1 hr; format: cell-free
[45] = target: Proteasome Macropain subunit (Homo sapiens) (UniProt P49721); assay: Inhibition of 26S proteasome beta 2 in human HEK293 cell lysate assessed as residual activity at 0.11 uM after 1 hr; format: cell-free
[46] = target: Proteasome Macropain subunit (Homo sapiens) (UniProt P49721); assay: Inhibition of 26S proteasome beta 2 in human HEK293 cell lysate assessed as residual activity at 0.03 uM after 1 hr; format: cell-free
[47] = target: Proteasome subunit beta type-5 (Homo sapiens) (UniProt P28074); assay: Inhibition of 26S proteasome beta 5 in human HEK293 cell lysate assessed as residual activity at 9 uM after 1 hr
[48] = target: Proteasome subunit beta type-5 (Homo sapiens) (UniProt P28074); assay: Inhibition of 26S proteasome beta 5 in human HEK293 cell lysate assessed as residual activity at 3 uM after 1 hr
[49] = target: Proteasome subunit beta type-5 (Homo sapiens) (UniProt P28074); assay: Inhibition of 26S proteasome beta 5 in human HEK293 cell lysate assessed as residual activity at 1 uM after 1 hr
[50] = target: Proteasome subunit beta type-5 (Homo sapiens) (UniProt P28074); assay: Inhibition of 26S proteasome beta 5 in human HEK293 cell lysate assessed as residual activity at 0.11 uM after 1 hr
[51] = target: Proteasome subunit beta type-5 (Homo sapiens) (UniProt P28074); assay: Inhibition of 26S proteasome beta 5 in human HEK293 cell lysate assessed as residual activity at 0.03 uM after 1 hr

SMILES: CC(C)C[C@H](NC(=O)[C@H](Cc1cc(C(F)(F)F)cc(C(F)(F)F)c1)NC(=O)[C@H](Cc1ccccc1)NC(=O)[C@H](Cc1ccccc1)N=[N+]=[N-])C(=O)[C@@]1(C)CO1
- Activity [1]: 2.6%
- Activity [2]: 50.3%
- Activity [3]: 67.7%
- Activity [4]: 82.8%
- Activity [5]: 89.9%
- Activity [6]: 93.5%
- Activity [7]: 103%
- Activity [8]: 98.1%
- Activity [9]: 102%
- Activity [10]: 106%
- Activity [11]: 77.1%
- Activity [12]: 97.3%
- Activity [13]: 99.1%
- Activity [14]: 112%
- Activity [15]: 111%
- Activity [16]: 111%
- Activity [17]: 105%
- Activity [18]: 99.6%
- Activity [19]: 106%
- Activity [20]: 97.8%
- Activity [21]: 57.9%
- Activity [22]: 156%
- Activity [23]: 61%
- Activity [24]: 4.3%
- Activity [25]: 92%
- Activity [26]: 45%
- Activity [27]: 5.2%
- Activity [28]: 66.2%
- Activity [29]: 9.5%
- Activity [30]: 19.7%
- Activity [31]: 3%
- Activity [32]: 34.9%
- Activity [33]: 100%
- Activity [34]: 92.2%
- Activity [35]: 97%
- Activity [36]: 109%

SMILES: CC1=CC(C)=[N+]2C1=C(CCCCc1cn([C@@H](Cc3ccccc3)C(=O)N[C@@H](Cc3ccccc3)C(=O)N[C@@H](Cc3c(F)c(F)c(F)c(F)c3F)C(=O)N[C@@H](CC(C)C)C(=O)[C@@]3(C)CO3)nn1)c1c(C)cc(C)n1[B-]2(F)F
- Activity [3]: 98.4%
- Activity [11]: 106%
- Activity [37]: 100%
- Activity [38]: 120%
- Activity [39]: 107%
- Activity [40]: 111%
- Activity [41]: 101%
- Activity [42]: 102%
- Activity [43]: 141%
- Activity [44]: 124%
- Activity [45]: 134%
- Activity [46]: 117%
- Activity [27]: 45.8%
- Activity [47]: 8.3%
- Activity [48]: 18%
- Activity [49]: 25.3%
- Activity [50]: 76.5%
- Activity [51]: 89.7%
